{"source": "patent US8940865B2", "about": "“Myocardial peptide, preparation method and uses thereof” (Dalian Zhen-Ao Pharmaceutical Co, Ltd., priority 2008, dated 2015)", "key": {"[1]": {"tested_on": "primary culture myocardium cell damaged by hypoxia/reoxygenation", "test": "Anti-hypoxia/reoxygenation injury effect on primary culture myocardium cell (MTT)", "type": "cell-based, Neonatal SD rat", "source_text": "Take ventricle from Neonatal SD rat, wash with D-Hank's and cut to small pieces, digest with collagenase II to obtain the myocardium cell and fibroblast, which are cultivated with high glucose DMEM (dmem-h-15) culture medium containing 15% fetal bovine serum. Remove the fibroblast through differential adhesion and chemistry method, and inoculate myocardium cell on the 96-well plates.\n2.1.3 Anti-Hypoxia/Reoxygenation Injury Effect of CMPC to Primary Culture Myocardium Cell.\nCell cultivation method is the same as that in 2.1.1\nPreparation of model: Preparing the model by using the myocardium cell cultured for 48˜72 h, dividing the cell on the culture plate to following groups: Control Group, Model Group, Verapamil Group (2, 0.4, 0.08 mg/l final concentration) and CMPM Group (final concentration of 50, 10, 2, 0.4, 0.08, 0.016, 0.0032 mg/l), 3 wells for every group. Except the Control Group, the other groups are prepared by following method: placing the monolayer myocardium cell on center of culture plate on low glucose medium (containing Verapamil or CMPM with corresponding concentration), then placing the culture plate into the vacuum drying machine, filling nitrogen, and hermetically culturing, causing myocardial injury after oxygen lack for 15 hours, then being cultured for 1 hour by high glucose DMEM medium (95% atmosphere and 5% CO2) to cause reoxygention injury. Measuring the absorbance value at 540 nm by using MTT method, and the same as above, calculating the protective rate to figure out EC50."}, "[2]": {"tested_on": "primary culture myocardium cell damaged by adriamycin", "test": "Effect of CMPC against adriamycin injury of primary culture myocardium cell (MTT)", "type": "cell-based, Neonatal SD rat", "method": "Remove the fibroblast through differential adhesion and chemistry method, and inoculate myocardium cell on the 96-well plates.\n2.1.2 The Against Function of Cmpc to Injury of Adriamycin to Primary Culture Myocardium Cell.\nCell culture method is the same as 2.1.1\nPreparation of model: Blank Control Group: cultivating myocardium cell with DMEM-H-15;\nModel Group: adding 1 mg/L adriamycin, washing the plate with DMEM-H-15 two times after being cultivated for 1 h, adding DMEM-H-15 for cultivation;\nProtective rate=(Ax−Amodel)/(Acontrol−Amodel)×100%;\n(Ax, Amode, Acontrol respectively represent Absorbance value of Drug administration groups, Model Group and Blank control group."}, "[3]": {"tested_on": "ischemia/reperfusion damaged rat", "test": "Preventive administration, ischemia/reperfusion (LAD ligation) rat model", "type": "in vivo, SD rat", "details": "preventive i.v. 30 min before ligation, Dosage 1.0 mg/kg", "method": "70 SD rats (250˜300 g per rat) were taken, wherein, 60 rats were divided into 6 groups evenly and randomly according to weight, every 10 of each group, the remains are kept for replacement of dead animals of each group.\nNormal Control Group: carrying out sham operation, threading a silk suture through the left anterior descending coronary artery (LAD) without ligation;\nModel Group: intravenous injecting saline solution of 5 ml/kg 30 minutes before ligation, and the preparation of hypoxia/reoxygenation model is the same as Normal Control Group;\nPositive Control Group: intravenous injecting Verapamil of 1 ml/kg 30 min before ligation, preparation of the hypoxia/reoxygenation model is the same as Normal Control Group. […]\nPreparation of the Model:\n(§1) Intraperitoneal injecting 6% Urethane with 20 ml/kg to anaesthetize the animal, fixing the animal on operating table in supine position; being connected with the electrocardiograph to detect the limb II lead electrocardiogram, tracheal intubating and connecting the animal with respirators, taking continuous positive end-expiratory pressure with tidal volume of 6 ml/200 g, frequency of 55/min and breathing ratio of 2:1. Carrying out thoracotomy on the gap between the forth and the fifth ribs of the left border of sternum, separating the ribs and removing the pericardium. Ligating at the left anterior descending coronary artery by using 6/0 silk suture by the sign of left auricle lower margin, and setting a piece of polyethylene pipe with diameter of 1 mm between the ligation silk suture and blood vessel. Ligating the silk suture to press the left anterior descending coronary artery by the polyethylene pipe and cause myocardial ischemia. Taking part of myocardium becoming grey and electrocardiogram S-T segment raising as the sign of that the left anterior descending coronary artery is ligated successfully. Taking out the polyethylene pipe carefully to cause the reperfusion. Verifying the success of reoxygenation by reactive hyperemia of ischemia area and the descending of the raised S-T segment by ½. Reoxygenation for 30 minutes, then sampling blood from abdominal aorta to prepare serum which is used to measure the biochemical index (measuring the content of CK, LDH, MDA, SPD according to the Reagent kits Instruction).\n(§2) Rat's heart was taken and after being blooded, the residual blood in the ventricle was cleaned by normal saline to weight the weight of whole heart. Fat was removed, the heart was crosscut into 4˜5 pieces and was put into a tube, to be carried out NBT dye at 37° C. (dying the normal tissue rather than the ischemic tissue), taking photographs. The ischemic area of the myocardium was cut to take a weighing, and then the myocardial infarct size (MIS) was calculated by the ratio of weight of the ischemic area of the myocardium to whole heart weight, which was present by percentage."}, "[4]": {"tested_on": "ischemia/reperfusion damaged rat", "test": "Therapeutic administration, ischemia/reperfusion (LAD ligation) rat model", "type": "in vivo, SD rat", "details": "therapeutic i.v. 5 minutes after ligation, Dosage 1.0 mg/kg", "method": "as §1, §2\nThe drug was intravenously injured on the tail 5 minutes after ligation of LAD, then reperfusion was carried out for 30 min 30 minutes after ligation of LAD. Heart was taken after sampling blood from abdominal aorta. The biochemical index and the myocardial infarction size were measure by using the above method."}}}
{"smiles": "COc1ccc(CCN(C)CCCC(C#N)(c2ccc(OC)c(OC)c2)C(C)C)cc1OC", "note": "(stereo not shown) [Positive Control Group, Verapamil, reference compound]", "values": [{"measurement": "% (protective rate)", "setting": "[1]; Plate 1, Dosage 0.08 mg/L", "value": 14.16, "unit": "%"}, {"measurement": "A540", "setting": "[1]; Plate 1, Dosage 0.08 mg/L", "value": "0.524 ± 0.036"}, {"measurement": "% (protective rate)", "setting": "[1]; Plate 1, Dosage 0.4 mg/L", "value": 20.15, "unit": "%"}, {"measurement": "A540", "setting": "[1]; Plate 1, Dosage 0.4 mg/L", "value": "0.541 ± 0.029"}, {"measurement": "% (protective rate)", "setting": "[1]; Plate 1, Dosage 2 mg/L", "value": 12.87, "unit": "%"}, {"measurement": "A540", "setting": "[1]; Plate 1, Dosage 2 mg/L", "value": "0.520 ± 0.060"}, {"measurement": "% (protective rate)", "setting": "[1]; Plate 2, Dosage 0.08 mg/L", "value": 23.85, "unit": "%"}, {"measurement": "A540", "setting": "[1]; Plate 2, Dosage 0.08 mg/L", "value": "0.553 ± 0.031"}, {"measurement": "% (protective rate)", "setting": "[1]; Plate 2, Dosage 0.4 mg/L", "value": 33.18, "unit": "%"}, {"measurement": "A540", "setting": "[1]; Plate 2, Dosage 0.4 mg/L", "value": "0.579 ± 0.028"}, {"measurement": "% (protective rate)", "setting": "[1]; Plate 2, Dosage 2 mg/L", "value": 29.63, "unit": "%"}, {"measurement": "A540", "setting": "[1]; Plate 2, Dosage 2 mg/L", "value": "0.569 ± 0.029"}, {"measurement": "% (protective rate)", "setting": "[1]; Plate 3, Dosage 0.08 mg/L", "value": 30.62, "unit": "%"}, {"measurement": "A540", "setting": "[1]; Plate 3, Dosage 0.08 mg/L", "value": "0.787 ± 0.020"}, {"measurement": "% (protective rate)", "setting": "[1]; Plate 3, Dosage 0.4 mg/L", "value": 35.44, "unit": "%"}, {"measurement": "A540", "setting": "[1]; Plate 3, Dosage 0.4 mg/L", "value": "0.795 ± 0.022"}, {"measurement": "% (protective rate)", "setting": "[1]; Plate 3, Dosage 2 mg/L", "value": 41.37, "unit": "%"}, {"measurement": "A540", "setting": "[1]; Plate 3, Dosage 2 mg/L", "value": "0.805 ± 0.018"}, {"measurement": "% (protective rate)", "setting": "[2]; Plate 1, Dosage 0.08 mg/L", "value": 31.53, "unit": "%"}, {"measurement": "A540", "setting": "[2]; Plate 1, Dosage 0.08 mg/L", "value": "0.694 ± 0.110"}, {"measurement": "% (protective rate)", "setting": "[2]; Plate 1, Dosage 0.4 mg/L", "value": 50.23, "unit": "%"}, {"measurement": "A540", "setting": "[2]; Plate 1, Dosage 0.4 mg/L", "value": "0.714 ± 0.021"}, {"measurement": "% (protective rate)", "setting": "[2]; Plate 1, Dosage 2 mg/L", "value": 46.83, "unit": "%"}, {"measurement": "A540", "setting": "[2]; Plate 1, Dosage 2 mg/L", "value": "0.710 ± 0.099"}, {"measurement": "% (protective rate)", "setting": "[2]; Plate 2, Dosage 0.08 mg/L", "value": 30.45, "unit": "%"}, {"measurement": "A540", "setting": "[2]; Plate 2, Dosage 0.08 mg/L", "value": "0.749 ± 0.031"}, {"measurement": "% (protective rate)", "setting": "[2]; Plate 2, Dosage 0.4 mg/L", "value": 30.29, "unit": "%"}, {"measurement": "A540", "setting": "[2]; Plate 2, Dosage 0.4 mg/L", "value": "0.749 ± 0.050"}, {"measurement": "% (protective rate)", "setting": "[2]; Plate 2, Dosage 2 mg/L", "value": 46.68, "unit": "%"}, {"measurement": "A540", "setting": "[2]; Plate 2, Dosage 2 mg/L", "value": "0.767 ± 0.045"}, {"measurement": "% (protective rate)", "setting": "[2]; Plate 3, Dosage 0.08 mg/L", "value": 30.09, "unit": "%"}, {"measurement": "A540", "setting": "[2]; Plate 3, Dosage 0.08 mg/L", "value": "0.755 ± 0.021"}, {"measurement": "% (protective rate)", "setting": "[2]; Plate 3, Dosage 0.4 mg/L", "value": 37.28, "unit": "%"}, {"measurement": "A540", "setting": "[2]; Plate 3, Dosage 0.4 mg/L", "value": "0.770 ± 0.012"}, {"measurement": "% (protective rate)", "setting": "[2]; Plate 3, Dosage 2 mg/L", "value": 36.18, "unit": "%"}, {"measurement": "A540", "setting": "[2]; Plate 3, Dosage 2 mg/L", "value": "0.768 ± 0.013"}, {"measurement": "MIS (myocardial infarct size)", "setting": "[3]; ischemic area weight/whole heart weight", "value": "4.19 ± 0.70", "unit": "%"}, {"measurement": "CK", "setting": "[3]; rat serum", "value": "2.087 ± 0.432", "unit": "U/ml"}, {"measurement": "LDH", "setting": "[3]; rat serum", "value": "7376.09 ± 784.64", "unit": "U/L"}, {"measurement": "MDA", "setting": "[3]; rat serum", "value": "4.755 ± 0.718", "unit": "nmol/mL"}, {"measurement": "SOD", "setting": "[3]; rat serum", "value": "135.63 ± 7.878", "unit": "U/ml"}, {"measurement": "CK", "setting": "[4]; rat serum", "value": "1.777 ± 0.389", "unit": "U/ml"}, {"measurement": "LDH", "setting": "[4]; rat serum", "value": "6791.96 ± 570.85", "unit": "U/L"}, {"measurement": "MDA", "setting": "[4]; rat serum", "value": "4.960 ± 0.338", "unit": "nmol/mL"}, {"measurement": "SOD", "setting": "[4]; rat serum", "value": "140.36 ± 14.00", "unit": "U/ml"}, {"measurement": "MIS (myocardial infarct size)", "setting": "[4]", "value": "4.07 ± 1.56", "unit": "%"}]}
